Columns and labels:
[1] = system: BxPC3 human pancreatic cancer cells; assay: Orthotopic BxPC3 xenograft model for pancreatic cancer in nude mice (survival); assay type: in vivo; details: monotherapy, gemcitabine 100 mg/kg or RAM9 60 mg/kg alone
Description: Control groups were left untreated (left and right panel, dotted black line) or were treated with a control human monoclonal antibody (Control IgG, left panel, solid grey line) or with gemcitabine alone (Gemcitabine, left panel, solid black line). The survival curves represent the points in time when animals had to be sacrificed in accordance with UK Home Office Guidance.
BxPC3 cells are derived from a human pancreatic adenocarcinoma and grow inside the pancreas once they have been injected orthotopically in nude mice and present as a solid tumor. CD1-Foxn1/nu nude mice are orthotopically inoculated with 1×10^6 BxPC3 cells (injection of 30 μl matrigel:tumor cell suspension into the pancreas) and the tumor was allowed to establish for 7 days. […] Additional control groups were left untreated or received a control human IgG1 monoclonal antibody. The growth of internal tumors was judged by external signs (e.g. abdominal distension causing more than 20% increase in normal body weight, or a 20% loss in normal body weight) or clinical signs (e.g. dyspnoea, jaundice, neurological signs, digestive disturbances). Animals reaching the home office limit according to the UK home office guidance were sacrificed (for animal welfare reasons). The resulting survival curve was used as primary outcome of the study.

[2] = system: Colo357 human pancreatic cancer cell line; assay: Orthotopic Colo357 xenograft model for pancreatic cancer in nude mice (survival, tumor volume, microvessel density); assay type: in vivo; details: monotherapy
Description: Control groups were left untreated or were treated with gemcitabine alone (Gem) or a control human monoclonal antibody alone (Control) or with a control human monoclonal antibody in combination with gemcitabine (Control+Gem). (A) Survival curves representing the points in time when animals had to be sacrificed in accordance with UK Home Office Guidance. (B) Tumor volume was measured in as subset of animals after animals had been sacrificed on day 20 after cell implantation. (C) After treatment, mice bearing a Colo357 xenograft were injected i.v. with the FITC-conjugated tomato lectin to visualize the blood vessels on day 12. Microvessel density was quantified using ImagePro Plus software (Image-Pro plus, Media Cybernetics) and vessel density was expressed as the mean percentage of total surface area.
CD1-Foxn1/nu nude mice are orthotopically inoculated with 1×10^5 Colo357 cells (injection of 30 μl matrigel:tumor cell suspension into the pancreas) and the tumor was allowed to establish for 7 days. […]
We further analyzed […] vessel density in a small cohort of animals. […] Cell nuclei were stained using propidium iodide, and vessels were visualized using confocal microscopy (Zeiss LSM 510 META), and microvessel density was quantified using ImagePro Plus software (Image-Pro plus, Media Cybernetics). Vessel density was expressed as the mean

[3] = system: A2780adr ovarian cancer cells; assay: Induction of apoptosis (caspase 3 activity) in doxorubicin-resistant ovarian cancer cells; assay type: cell-based, human; details: agent alone; 72 hours of treatment
Description: The percentage increased caspase 3 activity over non-treated cells is indicated. Cells were treated with a human isotype control IgG (Control IgG), anti-MIF antibody RAM0 or RAM9 alone, a combination of control IgG and doxorubicin (Control IgG+Dox), doxorubicin alone (Dox) or a combination of anti-MIF antibody and doxorubicin (RAM0+Dox or RAM9+Dox).
The induction of apoptosis was assessed by detection of caspase 3 activity after 72 hours of treatment.

[4] = system: LnCAP cells; assay: Mitoxantrone-dependent cell killing assay (calcein-AM, flow cytometry); assay type: cell-based, human; details: for EC50: Homo sapiens, LNCaP, 48 h, n=10
Description: The single values as well as the mean±standard deviation of 10 independent experiments are shown.
(§1) After 48 hours of incubation cells were detached with Accutase™, labeled with calcein-AM and the level of calcein fluorescence was determined by flow cytometry. The mean fluorescence intensity in the absence of any drug or antibody was set to 1 to normalize for interassay variations. The mean fluorescent intensities were plotted against the mitoxantrone concentration and the half maximum active concentrations of mitoxantrone (EC50-values) were calculated.

[5] = system: A2780 xenografts; assay: A2780 ovarian cancer xenograft in Mf1 nude mice (tumor growth); assay type: in vivo, human; details: monotherapy; RAM0 15 mg/kg every other day or cisplatin once a week
Description: Tumor weights are indicated after treatment of inoculated mice with a human control IgG or with RAM0. Antibodies were applied either alone or in combination with cisplatin.
This effect is of high relevance, in particular if it can also be observed in vivo. This was explored in female Mf1 nude mice inoculated with A2780 xenografts (FIG. 5). Mice (n=10/group) were inoculated with 1*10^6 A2780 cells resuspended in matrigel. […] Cisplatin was administered once a week starting on day 2 after xenograft inoculation.

[6] = system: A2780 cells; assay: Cisplatin-dependent cell killing assay (calcein-AM, flow cytometry); assay type: cell-based, human; details: in presence of 50 nM RAM0; 48 hours; p<0.01
Description: Data are the means±standard deviation of 9 independent experiments.
as §1, with “blotted” for “plotted”, “cisplatin” for “mitoxantrone”

For `Nc1ccn([C@@H]2O[C@H](CO)[C@@H](O)C2(F)F)c(=O)n1` [Gemcitabine, reference compound], the “survival of the xenografted mice” value [1] was “only marginally prolonged the survival”, the “blood vessel density in the tumour microenvironment” value ([2]; day 12, FITC-conjugated tomato lectin) was “Neither gemcitabine nor RAM0 have a significant effect” and the survival ([2]; gemcitabine 100 mg/kg or RAM0 60 mg/kg alone, i.p., Colo357 in nude mice) was “only prolonged survival to a marginal and statistically insignificant extent”.
`COc1cccc2c1C(=O)c1c(O)c3c(c(O)c1C2=O)C[C@@](O)(C(=O)CO)C[C@@H]3O[C@H]1C[C@H](N)[C@H](O)[C@H](C)O1` [Doxorubicin, reference compound] was tested, and the “caspase 3 activity” value [3] was “significant but minor enhanced caspase 3 activity”.
With `O=C1c2c(O)ccc(O)c2C(=O)c2c(NCCNCCO)ccc(NCCNCCO)c21` [mitoxantrone, Mitoxantrone] the EC50 ([4]; in presence of 100 nM RAM0) was 0.97 nM, the EC50 ([4]; mitoxantrone alone) was 1.6 nM and the “mean EC50 of mitoxantrone” value ([4]; in presence of 100 nM human isotype control antibody, compared to mitoxantrone alone) was “identical mean EC50”.
For `N.N.[Cl][Pt][Cl]` [Cisplatin, reference compound], the tumor growth [5] was “did not have any effect on tumor growth” and the EC50-value of cisplatin [6] was “reduced significantly”.

Reference: patent US20150071942A1, “COMBINATION THERAPY OF ANTI-MIF ANTIBODIES AND CHEMOTHERAPEUTICS” (Baxter Healthcare SA, priority 2012, published 2015)
